Reference: the supplement of paper PMC10627819

How the values were obtained:
S. aureus DSM 20231 [1] = assay: Bliss interaction score (quartile over a dose matrix) (fitness difference); higher = more antagonism (negative = synergy)
Outline: (§1)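 The Bliss score is observed fitness minus expected fitness, where the expected value is the product of single-drug fitness values inferred from combination data. Fitness is OD595 at entry into stationary phase normalised to the plate's robust no-drug mean and capped at 1. Scores are reported as quartiles spanning technical, biological and donor/recipient replicates.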

S. pneumoniae D39V [2] = assay: as above
Outline: as §1

S. aureus Newman [3] = assay: as above
Outline: as §1

B. subtilis 168 [4] = assay: as above
Outline: as §1

S. aureus DSM 20231 [5] = assay: fitness (endpoint OD595 vs no drug) (fraction); higher = more growth
Outline: (§2)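 Background-subtracted growth curves were the basis for fitness, taken as the optical density at entry into stationary phase over the robust mean of no-drug control wells. A cap of 1 was applied. The curves came from OD595 readings every 30 min for 14 h at 37 °C, in 384-well plates seeded at OD595 0.01 with 30 µl, or 55 µl for S. pneumoniae.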

S. pneumoniae D39V [6] = assay: as above
Outline: as §2

S. aureus Newman [7] = assay: as above
Outline: as §2

B. subtilis 168 [8] = assay: as above
Outline: as §2
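Throughout, for Bliss interaction score (quartile over a dose matrix): first quartile when negative (synergy) and third quartile when positive (antagonism).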

Cc1onc(-c2ccccc2)c1C(=O)N[C@@H]1C(=O)N2[C@@H]1SC(C)(C)[C@@H]2C(=O)O [Oxacillin] + C[n+]1ccc(-c2cc[n+](C)cc2)cc1 [Paraquat]
Settings	Bliss interaction score
B. subtilis 168 [4]	-0.0872
S. aureus DSM 20231 [1]	-0.0577
S. aureus Newman [3]	-0.0522
S. pneumoniae D39V [2]	0.0963

Settings	fitness
B. subtilis 168 [8], first compound 0.002 µg/mL, partner 1.25 µg/mL	0.964
B. subtilis 168 [8], first compound 0.002 µg/mL, partner 2.5 µg/mL	0.922
B. subtilis 168 [8], first compound 0.002 µg/mL, partner 5 µg/mL	0.725
B. subtilis 168 [8], first compound 0.004 µg/mL, partner 1.25 µg/mL	0.917
B. subtilis 168 [8], first compound 0.004 µg/mL, partner 2.5 µg/mL	0.864
B. subtilis 168 [8], first compound 0.004 µg/mL, partner 5 µg/mL	0.747
B. subtilis 168 [8], first compound 0.008 µg/mL, partner 1.25 µg/mL	0.861
B. subtilis 168 [8], first compound 0.008 µg/mL, partner 2.5 µg/mL	0.836
B. subtilis 168 [8], first compound 0.008 µg/mL, partner 5 µg/mL	0.665
S. aureus DSM 20231 [5], first compound 0.0156 µg/mL, partner 1.25 µg/mL	0.909
S. aureus DSM 20231 [5], first compound 0.0156 µg/mL, partner 2.5 µg/mL	0.892
S. aureus DSM 20231 [5], first compound 0.0156 µg/mL, partner 5 µg/mL	0.865
S. aureus DSM 20231 [5], first compound 0.0312 µg/mL, partner 1.25 µg/mL	0.704
S. aureus DSM 20231 [5], first compound 0.0312 µg/mL, partner 2.5 µg/mL	0.688
S. aureus DSM 20231 [5], first compound 0.0312 µg/mL, partner 5 µg/mL	0.63
S. aureus DSM 20231 [5], first compound 0.0625 µg/mL, partner 1.25 µg/mL	0.466
S. aureus DSM 20231 [5], first compound 0.0625 µg/mL, partner 2.5 µg/mL	0.599
S. aureus DSM 20231 [5], first compound 0.0625 µg/mL, partner 5 µg/mL	0.498
S. aureus Newman [7], first compound 0.0156 µg/mL, partner 1.25 µg/mL	0.792
S. aureus Newman [7], first compound 0.0156 µg/mL, partner 2.5 µg/mL	0.779
S. aureus Newman [7], first compound 0.0156 µg/mL, partner 5 µg/mL	0.795
S. aureus Newman [7], first compound 0.0312 µg/mL, partner 2.5 µg/mL	0.688
S. aureus Newman [7], first compound 0.0312 µg/mL, partner 5 µg/mL	0.687
S. aureus Newman [7], first compound 0.0625 µg/mL, partner 2.5 µg/mL	0.604
S. aureus Newman [7], first compound 0.0625 µg/mL, partner 5 µg/mL	0.587
S. pneumoniae D39V [6], first compound 0.01 µg/mL, partner 1.5 µg/mL	0.986
S. pneumoniae D39V [6], first compound 0.01 µg/mL, partner 3 µg/mL	0.986
S. pneumoniae D39V [6], first compound 0.01 µg/mL, partner 6 µg/mL	0.96
S. pneumoniae D39V [6], first compound 0.02 µg/mL, partner 1.5 µg/mL	0.939
S. pneumoniae D39V [6], first compound 0.02 µg/mL, partner 3 µg/mL	0.961
S. pneumoniae D39V [6], first compound 0.02 µg/mL, partner 6 µg/mL	0.928
S. pneumoniae D39V [6], first compound 0.04 µg/mL, partner 3 µg/mL	0.538
S. pneumoniae D39V [6], first compound 0.04 µg/mL, partner 6 µg/mL	0.483

fitness, B. subtilis 168 [8], one replicate
Settings	first compound 0.075 µg/mL	first compound 0.15 µg/mL	first compound 0.3 µg/mL
partner 1.25 µg/mL	0.512	0.0497	0.0541
partner 2.5 µg/mL	0.326	0.054	0.0573
partner 5 µg/mL	0.0786	0.0366	0.0407

Cc1onc(-c2ccccc2)c1C(=O)N[C@@H]1C(=O)N2[C@@H]1SC(C)(C)[C@@H]2C(=O)O [Oxacillin] + COc1ccc(C[C@H](N)C(=O)N[C@H]2[C@@H](O)[C@H](n3cnc4c(N(C)C)ncnc43)O[C@@H]2CO)cc1 [Puromycin]
Settings	Bliss interaction score
B. subtilis 168 [4]	0.0568
S. aureus DSM 20231 [1]	0.0572
S. aureus Newman [3]	0.0763
S. pneumoniae D39V [2]	0.167

Settings	fitness
B. subtilis 168 [8], first compound 0.002 µg/mL, partner 0.39 µg/mL	0.98
B. subtilis 168 [8], first compound 0.002 µg/mL, partner 0.78 µg/mL	0.966
B. subtilis 168 [8], first compound 0.002 µg/mL, partner 1.56 µg/mL	0.932
B. subtilis 168 [8], first compound 0.004 µg/mL, partner 0.39 µg/mL	0.974
B. subtilis 168 [8], first compound 0.004 µg/mL, partner 0.78 µg/mL	0.914
B. subtilis 168 [8], first compound 0.004 µg/mL, partner 1.56 µg/mL	0.9
B. subtilis 168 [8], first compound 0.008 µg/mL, partner 0.39 µg/mL	0.88
B. subtilis 168 [8], first compound 0.008 µg/mL, partner 0.78 µg/mL	0.879
B. subtilis 168 [8], first compound 0.008 µg/mL, partner 1.56 µg/mL	0.864
S. aureus DSM 20231 [5], first compound 0.0156 µg/mL, partner 0.39 µg/mL	0.84
S. aureus DSM 20231 [5], first compound 0.0156 µg/mL, partner 0.78 µg/mL	0.902
S. aureus DSM 20231 [5], first compound 0.0156 µg/mL, partner 1.56 µg/mL	0.91
S. aureus DSM 20231 [5], first compound 0.0312 µg/mL, partner 0.39 µg/mL	0.72
S. aureus DSM 20231 [5], first compound 0.0312 µg/mL, partner 0.78 µg/mL	0.737
S. aureus DSM 20231 [5], first compound 0.0312 µg/mL, partner 1.56 µg/mL	0.748
S. aureus DSM 20231 [5], first compound 0.0625 µg/mL, partner 0.39 µg/mL	0.481
S. aureus DSM 20231 [5], first compound 0.0625 µg/mL, partner 0.78 µg/mL	0.555
S. aureus DSM 20231 [5], first compound 0.0625 µg/mL, partner 1.56 µg/mL	0.546
S. aureus Newman [7], first compound 0.0156 µg/mL, partner 0.78 µg/mL	0.85
S. aureus Newman [7], first compound 0.0156 µg/mL, partner 1.56 µg/mL	0.806
S. aureus Newman [7], first compound 0.0312 µg/mL, partner 0.39 µg/mL	0.765
S. aureus Newman [7], first compound 0.0312 µg/mL, partner 0.78 µg/mL	0.788
S. pneumoniae D39V [6], first compound 0.01 µg/mL, partner 1 µg/mL	≥ 1
S. pneumoniae D39V [6], first compound 0.01 µg/mL, partner 2 µg/mL	0.969
S. pneumoniae D39V [6], first compound 0.01 µg/mL, partner 4 µg/mL	0.918
S. pneumoniae D39V [6], first compound 0.02 µg/mL, partner 1 µg/mL	0.984
S. pneumoniae D39V [6], first compound 0.02 µg/mL, partner 2 µg/mL	0.949
S. pneumoniae D39V [6], first compound 0.02 µg/mL, partner 4 µg/mL	0.863
S. pneumoniae D39V [6], first compound 0.04 µg/mL, partner 1 µg/mL	0.668
S. pneumoniae D39V [6], first compound 0.04 µg/mL, partner 2 µg/mL	0.644
S. pneumoniae D39V [6], first compound 0.04 µg/mL, partner 4 µg/mL	0.281

fitness, one replicate
Settings	first compound 0.0156 µg/mL	first compound 0.0312 µg/mL	first compound 0.0625 µg/mL	first compound 0.075 µg/mL	first compound 0.15 µg/mL	first compound 0.3 µg/mL
B. subtilis 168 [8], partner 0.39 µg/mL	–	–	–	0.523	0.0695	0.0402
B. subtilis 168 [8], partner 0.78 µg/mL	–	–	–	0.645	0.0521	0.0336
B. subtilis 168 [8], partner 1.56 µg/mL	–	–	–	0.632	0.0547	0.0573
S. aureus DSM 20231 [5], partner 3.12 µg/mL	0.887	0.788	0.66	–	–	–
S. aureus DSM 20231 [5], partner 6.24 µg/mL	0.609	0.606	0.548	–	–	–
